Data on six compounds can be found in PubChem BioAssay (NCI).

Several values for one entry are separate records, joined by “and”; a condition that tells them apart may be missing. Equal values may be shown once.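 Tested at 5 concentrations; 48 h exposure; 96-well plates; endpoints linearly interpolated, else capped at highest concentration. GI50 marks 50% less growth. TGI: total growth inhibition.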

Some test systems named below: COLO 205 colon; HCC-2998 colon; IGROV1 ovarian; NCI-H522 lung; OVCAR-3 ovarian; OVCAR-4 ovarian; RPMI-8226 leukemia; RXF 393 renal; SF-295 CNS; SF-539 CNS.
Test in all cases: NCI-60 cell line screen, 48 h

As for `Cc1ccc(-n2c3c(c4c(CN)c(O)ccc42)CCc2ccccc2C3=O)cc1`, the GI50 in the assay on COLO 205 colon is 19.5 µM; with HCC-2998 colon, 4.05 µM; with IGROV1 ovarian, 8.18 µM; in the assay with NCI-H522 lung, 9.3 µM; with OVCAR-3 ovarian, 10.2 µM; in the assay with OVCAR-4 ovarian, 20.8 µM. The GI50 in the assay with RPMI-8226 leukemia was 4.31 µM; in the assay with RXF 393 renal, 17 µM; in the assay on SF-295 CNS, 10.2 µM; in the assay with SF-539 CNS, 16.6 µM. Moreover, the TGI was determined as 47 µM in the assay with COLO 205 colon; 15.6 µM in the assay on HCC-2998 colon; 22.8 µM in the assay with IGROV1 ovarian; 23.6 µM in the assay on NCI-H522 lung; 22.3 µM in the assay with OVCAR-3 ovarian; 46 µM with OVCAR-4 ovarian. For the same compound, the TGI was determined as 23.1 µM in the assay on RPMI-8226 leukemia, 36.7 µM with RXF 393 renal, 22.5 µM in the assay with SF-295 CNS and 36.1 µM in the assay on SF-539 CNS.

In the case of `Clc1ccc(COC(Cn2ccnc2)c2ccc(Cl)cc2Cl)c(Cl)c1` (stereo not drawn), the GI50 with COLO 205 colon is 1.62 µM and 10.1 µM and 3.78 µM; in the assay with HCC-2998 colon, 3.78 µM; with IGROV1 ovarian it was 3.59 µM and 10.6 µM and 1.37 µM; in the assay on OVCAR-3 ovarian, 5.35 µM; in the assay on OVCAR-4 ovarian, 2.91 µM; in the assay on RPMI-8226 leukemia, 3.67 µM. The GI50 in the assay on RXF 393 renal is 2.78 µM and 12.1 µM and 3.84 µM; with SF-295 CNS, 2.29 µM. Besides, the TGI in the assay with COLO 205 colon was 3.18 µM and 22.1 µM and 16.1 µM; with HCC-2998 colon, 14.9 µM and 35.6 µM and 26.3 µM; in the assay on IGROV1 ovarian, 15 µM and 24.7 µM and 10.9 µM; in the assay with NCI-H522 lung it was 23.7 µM and 22.8 µM; in the assay with OVCAR-3 ovarian, 17.1 µM and 25 µM and 21.5 µM; in the assay on OVCAR-4 ovarian, 18.4 µM and 23.3 µM and 25.7 µM. Moreover, the TGI in the assay with RPMI-8226 leukemia was 18.8 µM and 37.7 µM; in the assay with RXF 393 renal, 10.5 µM and 26 µM and 14.5 µM; in the assay with SF-295 CNS it was 8.73 µM and 23.7 µM and 23.8 µM; in the assay with SF-539 CNS it was 27.8 µM and 32.7 µM and 27.7 µM.

In the case of `O=C(Nc1ccc(N2CCNCC2)cn1)c1[nH]ncc1Nc1ncnc2sccc12`, the GI50 with COLO 205 colon was 1.72 µM; in the assay with HCC-2998 colon, 12.7 µM; with IGROV1 ovarian, 4.27 µM; with NCI-H522 lung it was 1.87 µM; in the assay with OVCAR-3 ovarian, 2.02 µM; in the assay on OVCAR-4 ovarian, 1.69 µM. The GI50 was 2.32 µM in the assay with RPMI-8226 leukemia, 3.32 µM in the assay with RXF 393 renal, 11.9 µM in the assay with SF-295 CNS and 1.69 µM in the assay with SF-539 CNS. Further, the TGI in the assay on COLO 205 colon turned out to be 3.88 µM; in the assay with HCC-2998 colon, 32.1 µM; with IGROV1 ovarian, 24.6 µM; with NCI-H522 lung, 4.36 µM; in the assay with OVCAR-3 ovarian, 4.38 µM; in the assay on OVCAR-4 ovarian, 3.63 µM. The TGI with RPMI-8226 leukemia amounted to 6.71 µM; with RXF 393 renal, 18.8 µM; in the assay on SF-295 CNS it was 28.9 µM; with SF-539 CNS, 3.39 µM.

On to `COCC(=O)NC/C=C/c1ccc2ncnc(Nc3ccc(Oc4ccc(C)nc4)c(C)c3)c2c1`, for which the GI50 with COLO 205 colon is 6 µM; with HCC-2998 colon, 20.1 µM; with IGROV1 ovarian, 15.9 µM; in the assay with NCI-H522 lung, 3.4 µM; in the assay on OVCAR-3 ovarian, 10.4 µM; with OVCAR-4 ovarian it was 4.83 µM. For the same compound, the GI50 in the assay with RPMI-8226 leukemia was 8.75 µM; in the assay on RXF 393 renal it was 13.9 µM; with SF-295 CNS it was 12.5 µM; with SF-539 CNS it was 15.1 µM. Further, the TGI with COLO 205 colon is 25.6 µM; in the assay on HCC-2998 colon, 39.7 µM; with IGROV1 ovarian, above 89.2 µM; in the assay with NCI-H522 lung, 25.8 µM; with OVCAR-3 ovarian, 28 µM; in the assay on OVCAR-4 ovarian, 31.1 µM. Also, the TGI in the assay with RPMI-8226 leukemia stood at 36.1 µM; in the assay on RXF 393 renal it was 36.3 µM; in the assay on SF-295 CNS, 38.1 µM; in the assay on SF-539 CNS, 31.7 µM.

For the compound `CCCc1n(Cc2ccc3ccccc3n2)cc[n+]1Cc1ccc2ccccc2c1`, the GI50 with COLO 205 colon was 0.319 µM; in the assay on HCC-2998 colon, 0.564 µM; in the assay on IGROV1 ovarian, 0.807 µM; in the assay on NCI-H522 lung, 0.249 µM; with OVCAR-3 ovarian it was 0.452 µM; in the assay on OVCAR-4 ovarian it was 0.357 µM. Also, the GI50 in the assay on RPMI-8226 leukemia was 0.275 µM; in the assay with RXF 393 renal it was 2.98 µM; in the assay with SF-295 CNS, 2.06 µM; with SF-539 CNS, 0.861 µM. In addition, the TGI was 1.34 µM in the assay with COLO 205 colon; 2.33 µM with HCC-2998 colon; 3.48 µM in the assay on IGROV1 ovarian; 1.13 µM in the assay with NCI-H522 lung; 1.96 µM in the assay on OVCAR-3 ovarian; 6.59 µM in the assay on OVCAR-4 ovarian. Moreover, the TGI with RPMI-8226 leukemia worked out at 1.62 µM; in the assay with RXF 393 renal, 14.6 µM; with SF-295 CNS it was 5.76 µM; in the assay with SF-539 CNS, 10.4 µM.

As to `C/C=C(\C)C(=O)N1c2ccccc2CC1c1c(C)[nH]c2ccccc12` (stereo not drawn), the TGI with COLO 205 colon is 74.5 µM; in the assay with HCC-2998 colon, above 100 µM; in the assay with IGROV1 ovarian it was above 100 µM; in the assay with NCI-H522 lung, above 100 µM; in the assay with OVCAR-3 ovarian, above 100 µM; with OVCAR-4 ovarian it was above 100 µM. The TGI with RPMI-8226 leukemia, in the assay on RXF 393 renal, with SF-295 CNS and in the assay with SF-539 CNS was above 100 µM in each case.
